Source: ChEMBL document CHEMBL1151757, “Synthesis, radiosynthesis, and biological evaluation of fluorine-18-labeled 2beta-carbo(fluoroalkoxy)-3beta-(3'-((Z)-2-haloethenyl)phenyl)nortropanes: candidate radioligands for in vivo imaging of the serotonin transporter with positron emission tomography” (J Med Chem, 2008)

Key:
[1] = target: Sodium-dependent serotonin transporter (Homo sapiens, UniProt P31645); assay: Displacement of [3H](R,S)citalopram.HBr from human SERT transfected in human HEK293 cells; assay type: cell-based
[2] = Drug uptake in awake rhesus monkey midbrain after 1.8 mins postinjection; assay type: ADME, organism-based, Macaca mulatta; details: in vivo, 0.03 h
[3] = Ratio of drug uptake in midbrain to cerebellum in awake rhesus monkey after 115 mins postinjection; assay type: ADME, organism-based, Macaca mulatta; details: in vivo
[4] = Ratio of drug uptake in thalamus to cerebellum in awake rhesus monkey after 115 mins postinjection; assay type: ADME, organism-based, Macaca mulatta; details: in vivo
[5] = Drug uptake in awake rhesus monkey occipital lobe after 25 mins postinjection; assay type: ADME, organism-based, Macaca mulatta; details: in vivo
[6] = Drug uptake in awake rhesus monkey occipital lobe after 35 mins postinjection; assay type: ADME, organism-based, Macaca mulatta; details: in vivo
[7] = Drug uptake in awake rhesus monkey caudate after 0.8 mins postinjection; assay type: ADME, organism-based, Macaca mulatta, Caudate nucleus; details: in vivo, 48 s
[8] = Ratio of drug uptake in frontal lobe to cerebellum in awake rhesus monkey after 2.8 mins postinjection; assay type: ADME, organism-based, Macaca mulatta; details: in vivo, 168 s
[9] = Drug uptake in awake rhesus monkey occipital lobe after 105 mins postinjection; assay type: ADME, organism-based, Macaca mulatta; details: in vivo, 1.75 h
[10] = Ratio of drug uptake in occipital lobe to cerebellum in awake rhesus monkey after 7.5 mins postinjection; assay type: ADME, organism-based, Macaca mulatta; details: in vivo, 0.125 h
[11] = Drug uptake in awake rhesus monkey thalamus after 2.8 mins postinjection; assay type: ADME, organism-based, Macaca mulatta; details: in vivo, 168 s
[12] = Drug uptake in awake rhesus monkey cerebellum after 1.8 mins postinjection; assay type: ADME, organism-based, Macaca mulatta; details: in vivo, 0.03 h
[13] = Drug uptake in awake rhesus monkey frontal lobe after 2.8 mins postinjection; assay type: ADME, organism-based, Macaca mulatta; details: in vivo, 168 s
[14] = Ratio of drug uptake in putamen to cerebellum in awake rhesus monkey after 25 mins postinjection; assay type: ADME, organism-based, Macaca mulatta; details: in vivo
[15] = Ratio of drug uptake in frontal lobe to cerebellum in awake rhesus monkey after 0.8 mins postinjection; assay type: ADME, organism-based, Macaca mulatta; details: in vivo, 48 s
[16] = Drug uptake in awake rhesus monkey occipital lobe after 55 mins postinjection; assay type: ADME, organism-based, Macaca mulatta; details: in vivo
[17] = Ratio of drug uptake in frontal lobe to cerebellum in awake rhesus monkey after 65 mins postinjection; assay type: ADME, organism-based, Macaca mulatta; details: in vivo
[18] = target: Sodium-dependent noradrenaline transporter (Homo sapiens, UniProt P23975); assay: Displacement of [3H]nisoxetine from human NET transfected in human HEK293 cells; assay type: cell-based
[19] = Ratio of drug uptake in pons to cerebellum in awake rhesus monkey after 2.3 mins postinjection; assay type: ADME, organism-based, Macaca mulatta; details: in vivo, 138 s
[20] = Drug uptake in awake rhesus monkey cerebellum after 0.3 mins postinjection; assay type: ADME, organism-based, Macaca mulatta; details: in vivo, 0.005 h
[21] = Drug uptake in awake rhesus monkey cerebellum after 1.3 mins postinjection; assay type: ADME, organism-based, Macaca mulatta; details: in vivo, 78 s
[22] = Ratio of drug uptake in midbrain to cerebellum in awake rhesus monkey after 4.5 mins postinjection; assay type: ADME, organism-based, Macaca mulatta; details: in vivo, 0.075 h
[23] = Ratio of drug uptake in medulla to cerebellum in anesthetized cynomolgus monkey after 235 mins postinjection; assay type: ADME, organism-based, Macaca fascicularis; details: in vivo
[24] = Drug uptake in awake rhesus monkey medulla after 2.3 mins postinjection; assay type: ADME, organism-based, Macaca mulatta, Medulla of organ; details: in vivo, 138 s
[25] = Drug uptake in awake rhesus monkey occipital lobe after 4.5 mins postinjection; assay type: ADME, organism-based, Macaca mulatta; details: in vivo, 0.075 h
[26] = Drug uptake in awake rhesus monkey occipital lobe after 65 mins postinjection; assay type: ADME, organism-based, Macaca mulatta; details: in vivo
[27] = Ratio of drug uptake in pons to cerebellum in awake rhesus monkey after 0.3 mins postinjection; assay type: ADME, organism-based, Macaca mulatta; details: in vivo, 0.005 h
[28] = Ratio of drug uptake in frontal lobe to cerebellum in awake rhesus monkey after 4.5 mins postinjection; assay type: ADME, organism-based, Macaca mulatta; details: in vivo, 0.075 h
[29] = Ratio of drug uptake in pons to cerebellum in awake rhesus monkey after 105 mins postinjection; assay type: ADME, organism-based, Macaca mulatta; details: in vivo, 1.75 h
[30] = Ratio of drug uptake in pons to cerebellum in awake rhesus monkey after 0.8 mins postinjection; assay type: ADME, organism-based, Macaca mulatta; details: in vivo, 48 s
[31] = Ratio of drug uptake in occipital lobe to cerebellum in awake rhesus monkey after 65 mins postinjection; assay type: ADME, organism-based, Macaca mulatta; details: in vivo
[32] = Drug uptake in awake rhesus monkey occipital lobe after 85 mins postinjection; assay type: ADME, organism-based, Macaca mulatta; details: in vivo
[33] = Drug uptake in awake rhesus monkey midbrain after 1.3 mins postinjection; assay type: ADME, organism-based, Macaca mulatta; details: in vivo, 78 s
[34] = Drug uptake in awake rhesus monkey midbrain after 2.3 mins postinjection; assay type: ADME, organism-based, Macaca mulatta; details: in vivo, 138 s
[35] = Drug uptake in awake rhesus monkey occipital lobe after 115 mins postinjection; assay type: ADME, organism-based, Macaca mulatta; details: in vivo
[36] = Drug uptake in anesthetized cynomolgus monkey brain occipital lobe after 182.5 mins postinjection; assay type: ADME, organism-based, Macaca fascicularis; details: in vivo
[37] = Drug uptake in anesthetized cynomolgus monkey brain frontal lobe after 202.5 mins postinjection; assay type: ADME, organism-based, Macaca fascicularis; details: in vivo, 3.375 h
[38] = Drug uptake in anesthetized cynomolgus monkey brain cerebellum after 187.5 mins postinjection; assay type: ADME, organism-based, Macaca fascicularis; details: in vivo, 3.125 h
[39] = Drug uptake in anesthetized cynomolgus monkey brain occipital lobe after 187.5 mins postinjection; assay type: ADME, organism-based, Macaca fascicularis; details: in vivo, 3.125 h
[40] = Ratio of drug uptake in thalamus to cerebellum in awake rhesus monkey after 10.5 mins postinjection; assay type: ADME, organism-based, Macaca mulatta; details: in vivo, 0.175 h
[41] = Drug uptake in awake rhesus monkey brain caudate after 1.25 mins postinjection; assay type: ADME, organism-based, Macaca mulatta, Caudate nucleus; details: in vivo, 75 s
[42] = Protein binding in anesthetized cynomolgus monkey plasma after 15 mins postinjection; assay type: ADME, organism-based, Macaca fascicularis; details: read-out: PPB (converted)
[43] = Ratio of drug uptake in frontal lobe to cerebellum in awake rhesus monkey after 75 mins postinjection; assay type: ADME, organism-based, Macaca mulatta; details: in vivo, 1.25 h
[44] = Metabolic stability in anesthetized cynomolgus monkey plasma after 1 min postinjection; assay type: ADME, organism-based, Macaca fascicularis; details: read-out: Stability
[45] = Drug uptake in awake rhesus monkey brain medulla after 0.25 mins postinjection; assay type: ADME, organism-based, Macaca mulatta; details: in vivo, 15 s
[46] = Ratio of drug uptake in caudate to cerebellum in awake rhesus monkey after 13.5 mins postinjection; assay type: ADME, organism-based, Macaca mulatta; details: in vivo, 0.225 h
[47] = Ratio of drug uptake in medulla to cerebellum in awake rhesus monkey after 25 mins postinjection; assay type: ADME, organism-based, Macaca mulatta; details: in vivo
[48] = Metabolic stability in anesthetized cynomolgus monkey plasma after 180 mins postinjection; assay type: ADME, organism-based, Macaca fascicularis; details: read-out: Stability
[49] = Ratio of drug uptake in medulla to cerebellum in awake rhesus monkey after 45 mins postinjection; assay type: ADME, organism-based, Macaca mulatta; details: in vivo, 0.75 h
[50] = Protein binding in anesthetized cynomolgus monkey plasma after 60 mins postinjection; assay type: ADME, organism-based, Macaca fascicularis; details: read-out: PPB (converted)
[51] = Drug uptake in awake rhesus monkey brain pons after 13.5 mins postinjection; assay type: ADME, organism-based, Macaca mulatta; details: in vivo, 0.225 h
[52] = Ratio of drug uptake in thalamus to cerebellum in awake rhesus monkey after 75 mins postinjection; assay type: ADME, organism-based, Macaca mulatta; details: in vivo, 1.25 h
[53] = Drug uptake in awake rhesus monkey brain frontal lobe after 2.25 mins postinjection; assay type: ADME, organism-based, Macaca mulatta; details: in vivo, 135 s
[54] = Drug uptake in awake rhesus monkey brain frontal lobe after 2.75 mins postinjection; assay type: ADME, organism-based, Macaca mulatta; details: in vivo, 165 s
[55] = Protein binding in anesthetized cynomolgus monkey plasma after 120 mins postinjection; assay type: ADME, organism-based, Macaca fascicularis; details: read-out: PPB (converted)
[56] = Ratio of drug uptake in thalamus to cerebellum in awake rhesus monkey after 35 mins postinjection; assay type: ADME, organism-based, Macaca mulatta; details: in vivo
[57] = Ratio of drug uptake in midbrain to cerebellum in awake rhesus monkey after 35 mins postinjection; assay type: ADME, organism-based, Macaca mulatta; details: in vivo
[58] = Drug uptake in awake rhesus monkey brain putamen after 1.25 mins postinjection; assay type: ADME, organism-based, Macaca mulatta; details: in vivo, 75 s
[59] = Protein binding in anesthetized cynomolgus monkey plasma after 1 min postinjection; assay type: ADME, organism-based, Macaca fascicularis; details: read-out: PPB (converted)
[60] = Drug uptake in awake rhesus monkey brain thalamus after 1.25 mins postinjection; assay type: ADME, organism-based, Macaca mulatta; details: in vivo, 75 s
[61] = Ratio of drug uptake in caudate to cerebellum in awake rhesus monkey after 105 mins postinjection; assay type: ADME, organism-based, Macaca mulatta; details: in vivo, 1.75 h
[62] = Ratio of drug uptake in frontal lobe to cerebellum in awake rhesus monkey after 45 mins postinjection; assay type: ADME, organism-based, Macaca mulatta; details: in vivo, 0.75 h
[63] = Ratio of drug uptake in medulla to cerebellum in awake rhesus monkey after 85 mins postinjection; assay type: ADME, organism-based, Macaca mulatta; details: in vivo

Chain of Sodium-dependent noradrenaline transporter (P23975 whole entry): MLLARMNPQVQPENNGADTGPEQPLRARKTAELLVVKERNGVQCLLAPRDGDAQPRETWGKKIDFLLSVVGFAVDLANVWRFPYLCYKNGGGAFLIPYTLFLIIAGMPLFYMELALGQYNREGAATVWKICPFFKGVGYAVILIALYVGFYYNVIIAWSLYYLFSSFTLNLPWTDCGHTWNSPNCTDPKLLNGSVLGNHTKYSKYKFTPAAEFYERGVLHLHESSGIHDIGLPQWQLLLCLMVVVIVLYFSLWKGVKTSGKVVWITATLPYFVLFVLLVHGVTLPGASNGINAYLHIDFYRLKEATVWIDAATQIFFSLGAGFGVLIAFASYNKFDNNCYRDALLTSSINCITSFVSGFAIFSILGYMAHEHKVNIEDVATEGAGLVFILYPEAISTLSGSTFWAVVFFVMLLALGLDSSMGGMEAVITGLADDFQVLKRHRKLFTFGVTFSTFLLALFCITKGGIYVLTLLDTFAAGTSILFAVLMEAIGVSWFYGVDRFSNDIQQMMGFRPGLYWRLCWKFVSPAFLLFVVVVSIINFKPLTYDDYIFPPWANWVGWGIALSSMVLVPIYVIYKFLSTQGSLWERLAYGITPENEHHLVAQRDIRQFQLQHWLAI
Chain of Sodium-dependent serotonin transporter (P31645 whole entry): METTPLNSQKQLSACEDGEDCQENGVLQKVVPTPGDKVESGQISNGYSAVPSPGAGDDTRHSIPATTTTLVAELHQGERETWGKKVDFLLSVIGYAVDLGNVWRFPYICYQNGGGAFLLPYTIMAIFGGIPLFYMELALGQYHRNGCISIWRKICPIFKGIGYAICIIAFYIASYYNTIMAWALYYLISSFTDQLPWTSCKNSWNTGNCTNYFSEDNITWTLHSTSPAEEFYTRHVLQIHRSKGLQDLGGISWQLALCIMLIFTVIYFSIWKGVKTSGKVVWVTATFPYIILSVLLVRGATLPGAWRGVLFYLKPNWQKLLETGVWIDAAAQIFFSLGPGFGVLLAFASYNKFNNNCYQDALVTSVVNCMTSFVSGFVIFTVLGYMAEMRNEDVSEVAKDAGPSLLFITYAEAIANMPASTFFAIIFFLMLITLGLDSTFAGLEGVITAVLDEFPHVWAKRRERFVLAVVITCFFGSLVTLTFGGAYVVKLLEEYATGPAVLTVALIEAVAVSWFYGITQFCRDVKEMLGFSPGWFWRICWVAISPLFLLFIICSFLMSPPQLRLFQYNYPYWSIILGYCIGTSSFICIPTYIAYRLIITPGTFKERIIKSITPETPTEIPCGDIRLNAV

O=C(OCC[18F])C1C2CCC(CC1c1ccc(/C=C\I)cc1)N2 (stereo not drawn)
Ki [1]: 0.08 nM | Drug uptake [2]: 0.25 | Ratio [3]: 2.5 | Ratio [4]: 2.6 | Drug uptake [5]: 2.48 | Drug uptake [6]: 2.65 | Drug uptake [7]: 0 | Ratio [8]: 0.9 | Drug uptake [9]: 2.58 | Ratio [10]: 1 | Drug uptake [11]: 0.65 | Drug uptake [12]: 0.27 | Drug uptake [13]: 0.47 | Ratio [14]: 1.3 | Ratio [15]: 0 | Drug uptake [16]: 2.73 | Ratio [17]: 1.3 | Ki [18]: 28 nM | Ratio [19]: 0.9 | Drug uptake [20]: 0.01 | Drug uptake [21]: 0.06 | Ratio [22]: 1 | Ratio [23]: 3.3 | Drug uptake [24]: 0.68 | Drug uptake [25]: 0.96 | Drug uptake [26]: 2.71 | Ratio [27]: 0 | Ratio [28]: 0.9 | Ratio [29]: 1.8 | Ratio [30]: 4.8 | Ratio [31]: 1.6 | Drug uptake [32]: 2.74 | Drug uptake [33]: 0.05 | Drug uptake [34]: 0.39 | Drug uptake [35]: 2.57

O=C(OCCC[18F])C1C2CCC(CC1c1cccc(/C=C\Br)c1)N2 (stereo not drawn)
Drug uptake [36]: 2.93 | Drug uptake [37]: 2.23 | Drug uptake [38]: 2.35 | Drug uptake [39]: 3.05

O=C(OCC[18F])C1C2CCC(CC1c1cccc(/C=C\I)c1)N2 (stereo not drawn)
Ratio [40]: 1.4 | Drug uptake [41]: 0.01 | fraction unbound at 0.25 h [42]: 0.932 | Ratio [43]: 1.1 | remaining at 1 min [44]: 93% | Drug uptake [45]: 0 | Ratio [46]: 1.1 | Ratio [47]: 1 | remaining at 3 h [48]: 13% | Ratio [49]: 1 | fraction unbound at 1 h [50]: 0.915 | Drug uptake [51]: 0.08 | Ratio [52]: 1.5 | Drug uptake [53]: 0.02 | Drug uptake [54]: 0.03 | fraction unbound at 2 h [55]: 0.934 | Ratio [56]: 1.4 | Ratio [57]: 1.3 | Drug uptake [58]: 0.01 | fraction unbound at 1 min [59]: 0.942 | Drug uptake [60]: 0.01 | Ratio [61]: 1.4 | Ratio [62]: 1 | Ratio [63]: 1.1
